Test system: Sprague Dawley rats
Test: TNF model of muscular mechanical hyperalgesia: withdrawal threshold to muscle pressure (Randall-Selitto)
Format: in vivo, rat
Settings: for % MPE on withdrawal pressure, Mean: TNF model
Experimental: The TNF test is used as a model of muscular mechanical hyperalgesia, which occurs in human fibromyalgia, myofascial pain or back pain. Intramuscular injection of tumor necrosis factor alpha (TNF) induces mechanical muscle hyperalgesia in rats. This is quantified by measuring the withdrawal threshold to muscle pressure and the grip strength. Mechanical withdrawal threshold to muscle pressure is measured with an analgesimeter exerting pressure on the gastrocnemius muscle previously injected with TNF. Forelimb grip strength is measured with a digital grip force meter after TNF injection into biceps brachii muscles. […] See, for example, […] et al., Pain 104(3):579-588 (2003). Adult male Sprague Dawley rats, from Charles River Sulzfeld, Germany, with a body weight of 220 g to 300 g were group-housed (3 animals per cage) and maintained in a room with controlled temperature (21-22° C.) and a reversed light-dark cycle (12 h/12 h) with food and water available ad libitum. […] All rats were habituated to the behavioral tests before injections and baseline values were recorded over three test days. Mechanical withdrawal thresholds to muscle pressure were measured with an analgesimeter (Ugo Basile, Comerio, Italy) according to the Randall-Selitto method. The rats were permitted to crawl into a sock, allowing them to relax. […] The pressure needed to elicit withdrawal was recorded. […] Three pre-tests were performed on days -3, -2 and -1, testing the left and right side in succession. Pre-test values varied only minimally over these 3 days. The mean withdrawal threshold for the 3 pre-test days was determined and taken for analysis. Only animals with a significant TNF effect were included for further analysis. The rats were injected with TNF into the gastrocnemius muscle. […] The rats were then placed in groups of 10 and treated with 0.3, 1.0 or 3.0 mg/kg rotigotine or vehicle i.p. Injection volume of i.p. injections was 0.5 ml/kg (weight dependent). Grip strength was again tested after 15 to 60 minutes, following injection of the rotigotine. Data are shown in graphs displaying means and SEMs. Pre- and post-treatment data were compared by ANOVA (analysis of variance) and a Tukey post hoc test. […] Maximal possible effects (MPE) were calculated for all types of treatment.

## CCCN(CCc1cccs1)[C@H]1CCc2c(O)cccc2C1 [Rotigotine, 5,6,7,8-tetrahydro-6-[propyl-[2-(2-thienyl)ethyl]amino]-1-naphthol]
Rotigotine 0.3 mg/kg
  % MPE on withdrawal pressure, Mean: −6.6%
Rotigotine 1 mg/kg
  % MPE on withdrawal pressure, Mean: 4.8%
rats, 0.3, 1 and 3 mg/kg i.p., conclusion of the study
  Reduction of muscular hyperalgesia induced by TNF injected into muscle: dose-dependent reduction of muscular hyperalgesia
With TNF i.m. into gastrocnemius, rotigotine 0.3 mg/kg i.p.
  Withdrawal pressure, Mean: 5.6 g
With TNF i.m. into gastrocnemius, rotigotine 1 mg/kg i.p.
  Withdrawal pressure, Mean: 6.5 g
With TNF i.m. into gastrocnemius, rotigotine 3 mg/kg i.p.
  Withdrawal pressure, Mean: 6.5 g
Without TNF, rotigotine 0.3 mg/kg i.p.
  Withdrawal pressure, Mean: 9.1 g
Without TNF, rotigotine 3 mg/kg i.p.
  Withdrawal pressure, Mean: 9.7 g

Source: patent publication US20110104281A1, “METHOD FOR TREATING PAIN USING A SUBSTITUTED 2-AMINOTETRALIN COMPOUND” (UCB PHARMA GMBH, priority 2006, published 2011)
